Assay results: patent US20230265151A1, “GIP/GLP1 CO-AGONIST COMPOUNDS” (priority 2020, published 2023)
Like-named read-outs stand apart in the source and are kept apart here. *1 amine or outer side, *2 acyl side, *3 side chain or, on linkers, in order; H or OH if unused. Where a SMILES comes first, the peptide text is derived from it. Side-chain parts run from the residue outwards. [ ]: non-standard residue; d: D form. The star is where a group is joined. Decanoyl(10-(4-HOOC-PhO)) = O=C(O)c1ccc(OCCCCCCCCCC(=O)*)cc1; αMePhe(2-F) = C[C@](N)(Cc1ccccc1F)C(=O)O; γGlu = O=C(O)[C@H](CCC(=O)[*:2])N[*:1]; αMeY = C[C@](N)(Cc1ccc(O)cc1)C(=O)O; αMeL = CC(C)C[C@](C)(N)C(=O)O; Orn = NCCC[C@H](N)C(=O)O; AEEA = NCCOCCOCC(=O)O; Aib = CC(C)(N)C(=O)O

What was measured:
Assay type in all cases: cell-based
[1] = target: hGLP-1R (Homo sapiens, UniProt P43220); experiment: Functional cAMP formation (HTRF) in HEK-293 clonal cells expressing hGLP-1R, 0.1% bovine casein, without or with 1.0% human serum albumin; design: expressed in transfected cells; settings: for Emax: percent of maximal response to GLP-1(7-36)NH2; for EC50: geometric mean
Chain of hGLP-1R (P43220 24-463): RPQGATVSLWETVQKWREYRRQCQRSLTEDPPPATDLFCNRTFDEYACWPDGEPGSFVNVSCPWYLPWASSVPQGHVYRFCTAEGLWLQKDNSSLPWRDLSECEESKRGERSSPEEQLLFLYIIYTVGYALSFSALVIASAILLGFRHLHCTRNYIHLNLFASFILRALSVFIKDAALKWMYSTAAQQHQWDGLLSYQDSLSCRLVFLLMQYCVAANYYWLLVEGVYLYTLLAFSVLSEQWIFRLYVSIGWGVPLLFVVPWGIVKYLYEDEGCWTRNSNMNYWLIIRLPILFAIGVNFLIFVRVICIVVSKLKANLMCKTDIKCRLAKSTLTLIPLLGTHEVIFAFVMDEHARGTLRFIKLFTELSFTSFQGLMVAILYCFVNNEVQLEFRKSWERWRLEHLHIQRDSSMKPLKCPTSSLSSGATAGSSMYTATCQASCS
In short: (§1)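 Cells were stimulated with peptide for 30 min at 37° C, then lysed in buffer carrying cAMP-d2 and anti-cAMP Eu3+-cryptate for a competitive HTRF read after at least 60 min at room temperature. The 665/620 nm ratio was converted to nM cAMP against a standard curve.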

[2] = target: T1, hGIPR (Homo sapiens, UniProt P48546); experiment: Functional cAMP formation (HTRF) in HEK-293 clonal cells expressing hGIPR, 0.1% bovine casein, without or with 1.0% human serum albumin; settings: for Emax: percent of maximal response to GIP(1-42)NH2; for EC50: cAMP, 0.1% bovine casein (no human serum albumin), geometric mean
T1 construct: expressed in transfected cells
T1 sequence (P48546 22-466): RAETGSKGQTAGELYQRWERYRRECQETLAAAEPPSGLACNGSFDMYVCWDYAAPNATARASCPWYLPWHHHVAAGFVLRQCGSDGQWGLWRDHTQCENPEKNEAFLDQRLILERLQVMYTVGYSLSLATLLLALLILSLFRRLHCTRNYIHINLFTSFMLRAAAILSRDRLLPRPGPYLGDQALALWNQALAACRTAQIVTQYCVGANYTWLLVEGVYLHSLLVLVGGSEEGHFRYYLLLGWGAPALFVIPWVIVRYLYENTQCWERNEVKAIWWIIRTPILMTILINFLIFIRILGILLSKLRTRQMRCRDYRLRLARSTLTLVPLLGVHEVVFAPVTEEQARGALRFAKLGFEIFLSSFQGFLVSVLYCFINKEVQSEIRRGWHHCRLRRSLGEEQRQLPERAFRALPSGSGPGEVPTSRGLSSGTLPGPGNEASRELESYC
In short: as §1

[3] = target: T2, hGCGR (Homo sapiens, UniProt P47871); experiment: Functional cAMP formation (HTRF) in HEK-293 clonal cells expressing hGCGR, 0.1% bovine casein, without or with 1.0% human serum albumin; settings: 37° C.
T2 construct: expressed in transfected cells
T2 sequence (P47871 26-477): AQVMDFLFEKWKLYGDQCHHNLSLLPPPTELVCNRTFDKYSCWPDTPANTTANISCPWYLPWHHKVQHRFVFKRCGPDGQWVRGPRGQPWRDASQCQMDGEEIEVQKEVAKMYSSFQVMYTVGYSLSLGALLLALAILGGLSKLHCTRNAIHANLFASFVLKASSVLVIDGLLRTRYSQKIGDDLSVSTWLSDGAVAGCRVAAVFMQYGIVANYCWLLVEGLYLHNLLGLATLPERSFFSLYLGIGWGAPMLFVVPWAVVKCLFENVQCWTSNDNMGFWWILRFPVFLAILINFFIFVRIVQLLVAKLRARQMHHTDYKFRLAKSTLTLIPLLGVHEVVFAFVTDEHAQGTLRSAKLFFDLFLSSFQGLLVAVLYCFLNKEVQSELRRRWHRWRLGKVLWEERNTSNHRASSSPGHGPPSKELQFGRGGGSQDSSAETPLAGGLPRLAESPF
In short: as §1

[4] = cAMP, 37° C., 0.1% bovine casein (no human serum albumin), read-out: hGLP-1R EC50, nM (SEM, n)
[5] = 37° C., read-out: hGIPR EC50, nM (SEM, n)
[6] = cAMP, 0.1% bovine casein (no human serum albumin), geometric mean, read-out: hGCGR EC50, nM (SEM, n)
[7] = HEK293, read-out: hGLP-1R Emax, % ± SEM, 0.1% bovine casein and 1.0% human serum albumin, 37° C.
[8] = HEK293, read-out: hGLP-1R Emax, % ± SEM, cAMP, 37° C., 0.1% bovine casein, arithmetic mean
[9] = hGLP-1R EC50, nM (SEM, n), cAMP, 37° C., 0.1% bovine casein (no human serum albumin)
[10] = hGIPR EC50, nM (SEM, n), 37° C.
[11] = hGCGR EC50, nM (SEM, n), 0.1% bovine casein and 1.0% human serum albumin, geometric mean
[12] = hGCGR EC50, nM (SEM, n), cAMP, 0.1% bovine casein (no human serum albumin), geometric mean

| SMILES | Emax ([1]; HEK293, cAMP, 37° C., 0.1% bovine casein, arithmetic mean, read-out: hGLP-1R Emax, % ± SEM) | EC50 [1, 4] | Emax ([2]; HEK293, 0.1% bovine casein and 1.0% human serum albumin, 37° C., read-out: hGIPR Emax, % ± SEM) | EC50 [2, 5] | EC50 ([3]; 0.1% bovine casein and 1.0% human serum albumin, geometric mean, read-out: hGCGR EC50, nM (SEM, n)) | EC50 [3, 6] | Emax [1, 7] | Emax [1, 8] | EC50 ([1]; hGLP-1R EC50, nM (SEM, n), 0.1% bovine casein and 1.0% human serum albumin, 37° C.) | EC50 [1, 9] | Emax ([2]; HEK293, read-out: hGIPR Emax, % ± SEM, 0.1% bovine casein and 1.0% human serum albumin, 37° C.) | EC50 [2, 10] | EC50 [3, 11] | EC50 [3, 12] | Emax ([2]; HEK293, read-out: hGIPR Emax, % ± SEM, cAMP, 37° C., 0.1% bovine casein, arithmetic mean) | Emax ([1]; HEK293, cAMP, 37° C., 0.1% bovine casein and 1.0% human serum albumin, read-out: hGLP-1R Emax, % ± SEM) | Emax ([2]; HEK293, cAMP, 37° C., 0.1% bovine casein and 1.0% human serum albumin, read-out: hGIPR Emax, % ± SEM) | Emax ([2]; HEK293, cAMP, 37° C., 0.1% bovine casein, arithmetic mean, read-out: hGIPR Emax, % ± SEM) | EC50 ([3]; cAMP, 0.1% bovine casein and 1.0% human serum albumin, geometric mean (SEM, n), read-out: hGCGR EC50, nM (SEM, n)) |
| --- | --- | --- | --- | --- | --- | --- | --- | --- | --- | --- | --- | --- | --- | --- | --- | --- | --- | --- | --- |
| CC[C@H](C)[C@H](NC(=O)[C@H](CC(C)C)NC(=O)[C@](C)(Cc1ccc(O)cc1)NC(=O)[C@@H](CCC(=O)O)NC(=O)[C@@H](NC(=O)[C@H](Cc1ccccc1)NC(=O)[C@H](CCC(=O)O)NC(=O)C(C)(C)NC(=O)[C@H](CCC(N)=O)NC(=O)[C@H](C)NC(=O)[C@H](CCCCNC(=O)COCCOCCNC(=O)COCCOCCNC(=O)CC[C@H](NC(=O)CCCCCCCCCCCCC(=O)O)C(=O)O)NC(=O)[C@H](CCCN)NC(=O)[C@H](CC(=O)O)NC(=O)[C@H](CC(C)C)NC(=O)[C@](C)(CC(C)C)NC(=O)[C@@H](NC(=O)[C@H](CO)NC(=O)[C@H](Cc1ccc2ccccc2c1)NC(=O)[C@H](CC(=O)O)NC(=O)[C@H](CO)NC(=O)[C@@H](NC(=O)[C@](C)(Cc1ccccc1F)NC(=O)[C@@H](NC(=O)CNC(=O)[C@H](CCC(=O)O)NC(=O)C(C)(C)NC(=O)[C@@H](N)Cc1ccc(O)cc1)[C@@H](C)O)[C@@H](C)O)[C@@H](C)CC)[C@@H](C)CC)C(=O)N[C@@H](CCC(=O)O)C(=O)NCC(=O)NCC(=O)N1CCC[C@H]1C(=O)N[C@@H](CO)C(=O)N[C@@H](CO)C(=O)NCC(=O)N[C@@H](C)C(=O)N1CCC[C@H]1C(=O)N1CCC[C@H]1C(=O)N1CCC[C@H]1C(=O)N[C@@H](CO)C(=O)N[C@@H](CCCCNC(=O)COCCOCCNC(=O)COCCOCCNC(=O)CC[C@H](NC(=O)CCCCCCCCCCCCC(=O)O)C(=O)O)C(N)=O [Example 251] | 99% | 0.338 nM | 71.2% | 0.0305 nM | > 9950 nM | > 9950 nM | – | – | – | – | – | – | – | – | – | – | – | – | – |
| CC[C@H](C)[C@H](NC(=O)[C@H](CCCN)NC(=O)[C@H](CC(=O)O)NC(=O)[C@H](CC(C)C)NC(=O)[C@](C)(CC(C)C)NC(=O)[C@@H](NC(=O)[C@H](CO)NC(=O)[C@H](Cc1ccc(OC)cc1)NC(=O)[C@H](CC(=O)O)NC(=O)[C@H](CO)NC(=O)[C@@H](NC(=O)[C@](C)(Cc1ccccc1F)NC(=O)[C@@H](NC(=O)CNC(=O)[C@H](CCC(=O)O)NC(=O)C(C)(C)NC(=O)[C@@H](N)Cc1ccc(O)cc1)[C@@H](C)O)[C@@H](C)O)[C@@H](C)CC)C(=O)N[C@@H](C)C(=O)N[C@@H](CCC(N)=O)C(=O)NC(C)(C)C(=O)N[C@@H](CCC(=O)O)C(=O)N[C@@H](Cc1ccccc1)C(=O)N[C@H](C(=O)N[C@@H](CCCCNC(=O)COCCOCCNC(=O)COCCOCCNC(=O)CC[C@H](NC(=O)CCCCCCCCCOc1ccc(C(=O)O)cc1)C(=O)O)C(=O)N[C@@](C)(Cc1ccc(O)cc1)C(=O)N[C@@H](CC(C)C)C(=O)N[C@H](C(=O)N[C@@H](CCCCNC(=O)COCCOCCNC(=O)COCCOCCNC(=O)CC[C@H](NC(=O)CCCCCCCCCOc1ccc(C(=O)O)cc1)C(=O)O)C(=O)NCC(=O)NCC(=O)N1CCC[C@H]1C(=O)N[C@@H](CO)C(=O)N[C@@H](CO)C(=O)NCC(=O)N[C@@H](C)C(=O)N1CCC[C@H]1C(=O)N1CCC[C@H]1C(=O)N1CCC[C@H]1C(=O)N[C@@H](CO)C(N)=O)[C@@H](C)CC)[C@@H](C)CC [Example 279] (H-Y[Aib]EGT[αMePhe(2-F)]TSDY(Me)SI[αMeL]LD[Orn]IAQ[Aib]EFIK([AEEA-AEEA-γGlu-Decanoyl(10-(4-HOOC-PhO))])[αMeY]LIK([AEEA-AEEA-γGlu-Decanoyl(10-(4-HOOC-PhO))])GGPSSGAPPPS-NH2) | – | – | – | – | – | – | 114% | 112% | 36.6 nM | 0.406 nM | 88.6% | 0.0305 nM | > 9950 nM | > 9950 nM | – | – | – | – | – |
| CC[C@H](C)[C@H](NC(=O)[C@H](CCCN)NC(=O)[C@H](CC(=O)O)NC(=O)[C@H](CC(C)C)NC(=O)[C@](C)(CC(C)C)NC(=O)[C@@H](NC(=O)C(C)(C)NC(=O)[C@@H](NC(=O)[C@H](CC(=O)O)NC(=O)[C@H](CO)NC(=O)[C@@H](NC(=O)[C@](C)(Cc1ccccc1F)NC(=O)[C@@H](NC(=O)CNC(=O)[C@H](CCC(=O)O)NC(=O)C(C)(C)NC(=O)[C@@H](N)Cc1ccc(O)cc1)[C@@H](C)O)[C@@H](C)O)C(C)C)[C@@H](C)CC)C(=O)N[C@@H](C)C(=O)N[C@@H](CCC(N)=O)C(=O)NC(C)(C)C(=O)N[C@@H](CCC(=O)O)C(=O)N[C@@H](Cc1ccccc1)C(=O)N[C@H](C(=O)N[C@@H](CCCCNC(=O)COCCOCCNC(=O)COCCOCCNC(=O)CC[C@H](NC(=O)CCCCCCCCCOc1ccc(C(=O)O)cc1)C(=O)O)C(=O)N[C@@](C)(Cc1ccc(O)cc1)C(=O)N[C@@H](CC(C)C)C(=O)N[C@H](C(=O)N[C@@H](CCCCNC(=O)COCCOCCNC(=O)COCCOCCNC(=O)CC[C@H](NC(=O)CCCCCCCCCOc1ccc(C(=O)O)cc1)C(=O)O)C(=O)NCC(=O)NCC(=O)N1CCC[C@H]1C(=O)N[C@@H](CO)C(=O)N[C@@H](CO)C(=O)NCC(=O)N[C@@H](C)C(=O)N1CCC[C@H]1C(=O)N1CCC[C@H]1C(=O)N1CCC[C@H]1C(=O)N[C@@H](CO)C(N)=O)[C@@H](C)CC)[C@@H](C)CC [Example 308] | – | – | – | – | – | – | 92.2% | 98% | – | 0.689 nM | – | 0.0551 nM | > 9950 nM | > 9950 nM | 117% | – | – | – | – |
| CC[C@H](C)[C@H](NC(=O)[C@H](CCCN)NC(=O)[C@H](CC(=O)O)NC(=O)[C@H](CC(C)C)NC(=O)[C@](C)(CC(C)C)NC(=O)[C@@H](NC(=O)C(C)(C)NC(=O)[C@H](Cc1ccc(O)cc1)NC(=O)[C@H](CC(=O)O)NC(=O)[C@H](CO)NC(=O)[C@@H](NC(=O)[C@](C)(Cc1ccccc1F)NC(=O)[C@@H](NC(=O)CNC(=O)[C@H](CCC(=O)O)NC(=O)C(C)(C)NC(=O)[C@@H](N)Cc1ccc(O)cc1)[C@@H](C)O)[C@@H](C)O)[C@@H](C)CC)C(=O)N[C@@H](C)C(=O)N[C@@H](CCC(N)=O)C(=O)NC(C)(C)C(=O)N[C@@H](CCC(=O)O)C(=O)N[C@@H](Cc1ccccc1)C(=O)N[C@H](C(=O)N[C@@H](CCCCNC(=O)COCCOCCNC(=O)COCCOCCNC(=O)COCCOCCNC(=O)CC[C@H](NC(=O)CCCCCCCCCCCCC(=O)O)C(=O)O)C(=O)N[C@@](C)(Cc1ccc(O)cc1)C(=O)N[C@@H](CC(C)C)C(=O)N[C@H](C(=O)N[C@@H](CCCCNC(=O)COCCOCCNC(=O)COCCOCCNC(=O)COCCOCCNC(=O)CC[C@H](NC(=O)CCCCCCCCCCCCC(=O)O)C(=O)O)C(=O)NCC(=O)NCC(=O)N1CCC[C@H]1C(=O)N[C@@H](CO)C(=O)N[C@@H](CO)C(=O)NCC(=O)N[C@@H](C)C(=O)N1CCC[C@H]1C(=O)N1CCC[C@H]1C(=O)N1CCC[C@H]1C(=O)N[C@@H](CO)C(N)=O)[C@@H](C)CC)[C@@H](C)CC [Example 343] | – | 0.275 nM | – | 0.0111 nM | – | > 9950 nM | – | – | – | – | – | – | – | – | – | 98.2% | 90.2% | 98.8% | > 9950 nM |
